Measurements as given in patent publication US20190262330A1, “Method of Treating Hepatocellular Carcinoma Using N-(4-(6,7-dimethoxyquinolin-4-yloxy)phenyl)-N′-(4-fluorophenyl)cyclopropane-1,1-dicarboxamide, (2S)-hydroxybutanedioate” (Exelixis, Inc., priority 2017, published 2019).

Columns and labels:
[1] = system: patients with advanced renal cell carcinoma; experiment: CABOSUN trial, safety; type: in vivo, human
[2] = system: advanced RCC without prior therapy; experiment: CABOSUN trial, efficacy; type: in vivo, human; details: ITT
Description: All patients were required to have intermediate or poor risk disease as defined by the International Metastatic RCC Database Consortium (IMDC) risk group categories. Patients were stratified by IMDC risk group and presence of bone metastases (yes/no).
The major efficacy outcome measure was progression-free survival (PFS) by a retrospective blinded independent radiology review committee (BIRC).

[3] = system: advanced RCC after prior anti-angiogenic therapy; experiment: METEOR trial, efficacy; type: in vivo, human
Description: Patients were stratified by the number of prior VEGFR tyrosine kinase inhibitors (TKIs) and Memorial Sloan Kettering Cancer Center (MSKCC) Risk Group. […] The majority of the patients were male (75%), with a median age of 62 years. Sixty-nine percent (69%) received only one prior anti-angiogenic therapy. […] The main efficacy outcome measure was progression-free survival (PFS) assessed by a blinded independent radiology review committee among the first 375 subjects randomized. Other efficacy endpoints were objective response rate (ORR) and overall survival (OS) in the Intent-to-Treat (ITT) population. Tumor assessments were conducted every 8 weeks for the first 12 months, then every 12 weeks thereafter. Patients received treatment until disease progression or experiencing unacceptable toxicity. Patients on both arms who had disease progression could continue treatment at the discretion of the investigator.

[4] = system: patients with advanced renal cell carcinoma; experiment: METEOR trial, safety; type: in vivo, human
Description: Patients on both arms who had disease progression could continue treatment at the discretion of the investigator [see Clinical Studies (14)].

[5] = system: sorafenib-tolerant patients with hepatocellular carcinoma; details: in vivo; cited from earlier work
[6] = Solubility in aqueous media; type: physicochemical
[7] = system: patients who have not received prior systemic therapy; details: in vivo; cited from earlier work

CCN(CC)CCNC(=O)c1c(C)[nH]c(/C=C2\C(=O)Nc3ccc(F)cc32)c1C [Sunitinib, sunitinib]
Deaths within 30 days of treatment ([1]; CABOSUN): 6 deaths | ALT increased, Grade 3-4 ([1]; human, in vivo): 0% | AST increased, Grade 3-4 ([1]; human, in vivo): 3% | Anemia, Grade 3-4 ([1]; human, in vivo): 3% | Angiopathy, Grade 3-4 ([1]; human, in vivo): 1% | Arthralgia, Grade 3-4 ([1]; human, in vivo): 0% | Back pain, Grade 3-4 ([1]; human, in vivo): 0% | Blood creatinine increased, Grade 3-4 ([1]; human, in vivo): 3% | Bone pain, Grade 3-4 ([1]; human, in vivo): 1% | Confusional state, Grade 3-4 ([1]; human, in vivo): 1% | Constipation, Grade 3-4 ([1]; human, in vivo): 0% | Decreased appetite, Grade 3-4 ([1]; human, in vivo): 1% | Dehydration, Grade 3-4 ([1]; human, in vivo): 1% | Depression, Grade 3-4 ([1]; human, in vivo): 0% | Diarrhea, Grade 3-4 ([1]; human, in vivo): 11% | Dysphonia, Grade 3-4 ([1]; human, in vivo): 0% | Dyspnea, Grade 3-4 ([1]; human, in vivo): 6% | Fatigue, Grade 3-4 ([1]; human, in vivo): 17% | Hyperkalemia, Grade 3-4 ([1]; human, in vivo): 3% | Hypertension, Grade 3-4 ([1]; human, in vivo): 21% | Hypocalcemia, Grade 3-4 ([1]; human, in vivo): 0% | Hypomagnesemia, Grade 3-4 ([1]; human, in vivo): 0% | Hyponatremia, Grade 3-4 ([1]; human, in vivo): 8% | Hypophosphatemia, Grade 3-4 ([1]; human, in vivo): 7% | Hypotension, Grade 3-4 ([1]; human, in vivo): 1% | Lung infection, Grade 3-4 ([1]; human, in vivo): 0% | Lymphocyte count decreased, Grade 3-4 ([1]; human, in vivo): 6% | Nausea, Grade 3-4 ([1]; human, in vivo): 4% | Pain in extremity, Grade 3-4 ([1]; human, in vivo): 0% | Pain, Grade 3-4 ([1]; human, in vivo): 0% | Palmar-plantar erythrodysesthesia, Grade 3-4 ([1]; human, in vivo): 4% | Patients discontinued due to an adverse reaction ([1]; human, in vivo): 22% | Patients with any Grade 3-4 Adverse Reaction ([1]; human, in vivo): 65% | Patients with dose held ([1]; human, in vivo): 71% | Patients with dose reduced ([1]; human, in vivo): 35% | Platelet count decreased, Grade 3-4 ([1]; human, in vivo): 11% | Proteinuria, Grade 3-4 ([1]; human, in vivo): 1% | Renal failure acute, Grade 3-4 ([1]; human, in vivo): 1% | Skin ulcer, Grade 3-4 ([1]; human, in vivo): 0% | Stomatitis, Grade 3-4 ([1]; human, in vivo): 6% | Syncope, Grade 3-4 ([1]; human, in vivo): 0% | Vomiting, Grade 3-4 ([1]; human, in vivo): 3% | Weight decreased, Grade 3-4 ([1]; human, in vivo): 0% | Overall survival events [2]: (60) % | Confirmed ORR, partial responses only ([2]; BIRC): 9% | Median PFS ([2]; BIRC): 5.3 months | Progression-free survival events ([2]; BIRC): (63) %

CO[C@H]1C[C@@H]2CC[C@@H](C)[C@@](O)(O2)C(=O)C(=O)N2CCCC[C@H]2C(=O)O[C@H]([C@H](C)C[C@@H]2CC[C@@H](OCCO)[C@H](OC)C2)CC(=O)[C@H](C)/C=C(\C)[C@@H](O)[C@@H](OC)C(=O)[C@H](C)C[C@H](C)/C=C/C=C/C=C/1C [Everolimus, everolimus]
Confirmed ORR, partial responses only ([3]; ITT): 3% | Median PFS (95% CI) ([3]; first 375 randomized): 3.8 (3.7, 5.4) months | Adverse reactions leading to study treatment being held ([4]; METEOR): 59% | Adverse reactions leading to study treatment discontinuation ([4]; METEOR): 10% | Palmar-plantar erythrodysesthesia, All Grades ([4]; METEOR adverse reaction): 6% | Palmar-plantar erythrodysesthesia, Grade 3-4 ([4]; METEOR adverse reaction): <1%

CNC(=O)c1cc(Oc2ccc(NC(=O)Nc3ccc(Cl)c(C(F)(F)F)c3)c(F)c2)ccn1 [Regorafenib]
Overall survival compared with placebo [5]: improved overall survival

COc1cc2nccc(Oc3ccc(NC(=O)C4(C(=O)Nc5ccc(F)cc5)CC4)cc3)c2cc1OC.O=C(O)C[C@H](O)C(=O)O [Cabozantinib (S)-malate salt]
Solubility [6]: practically insoluble

CNC(=O)c1cc(Oc2ccc(NC(=O)Nc3ccc(Cl)c(C(F)(F)F)c3)cc2)ccn1 [sorafenib]
Objective responses [7]: very few objective responses | Overall survival [7]: improves overall survival
